Converted amounts (≈) assume the structure as drawn.
Key:
[1] = tested on: T1, Candida albicans F2014a093; test: microbe, parasite or virus in culture; design: species or system Candida albicans strains; CLSI M27 broth microdilution, RPMI 1640, OD600 growth, MIC at 50% inhibition; details: F2014A093, 24 h, read-out: 5-FUrd MIC (µg/mL)
T1 construct: F2014a093
Description: (§1) Minimum inhibitory concentrations (MICs) of 5-FUrd were determined by broth microdilution method in accordance with the guidelines in Clinical and Laboratory Standards Institute (CLSI) document M27[25], using RPMI 1640 medium containing 0.165 M MOPs (pH 7.0) and 0.2% glucose, an inoculum of 10^3 cells/well, and incubated for 24 hr at 35°C, followed by OD600 reading by TECAN SPARK plate reader. The MIC50 of 5-FUrd was determined as the lowest dosage of 5-FUrd causing 50% inhibition of the growth by using the concentrations in the range of 0.004-2μg/mL. MICs of […] of human use (5-FC; four azoles: posaconazole, voriconazole, itraconazole, fluconazole; and three echinocandins: anidulafungin, caspofungin and micafungin) were determined by the microdilution colorimetric Sensititre YeastOne SYO-09 panel (TREK Diagnostic Systems, Cleveland, OH, USA); in accordance with the manufacturer’s instructions. MICs values were determined visually, after 24 hours of incubation, as the lowest concentration of drug that caused complete inhibition (amphotericin B) or a significant diminution (≥50% inhibition; flucytosine, azoles and echinocandins) of growth relative to that of the growth control. Table 2. Minimum inhibitory concentrations of 5-FUrd and antifungal drugs of clinical used for pathogenic and drug-resistant isolates of Candida albicans^a We further tested the 5-FUrd sensitivity of a number of pathogenic C. albicans isolates from patients. […] Because 5-FC is intracellularly metabolized to 5-FU, we asked why the 5-FC-resistant isolates remained sensitive to 5-FUrd. Several mutations in 5-FC resistant strains were identified in the enzymes involved in the formation of 5-FUMP from 5-FC, including purine-cytosine permease (Fcy2), cytosine deaminase (Fca1) and uracil phosphoribosyltransferase (Fur1). These 5-FC-resistant but 5-FUrd-sensitive strains might have mutations in these genes. 5-FUrd is transported into C. albicans through uridine permease (Fui1) and is then phosphorylated to 5-FUMP by uridine kinase (Urk1). Presumably, activation of 5-FUrd metabolism by the Fui1 and Urk1 pathways can overcome the defects in genes mediating 5-FC activation, namely, Fcy2, Fca1 and Fur1, leading to toxicity, as depicted in Fig 6. One important effect of antifungal drugs is host liver toxicity.

[2] = tested on: T2, Candida albicans F2017g023; test: microbe, parasite or virus in culture; design: species or system Candida albicans strains; CLSI M27 broth microdilution, RPMI 1640, OD600 growth, MIC at 50% inhibition; details: F2017G023, 24 h, read-out: 5-FUrd MIC (µg/mL)
T2 construct: F2017g023
Description: as §1

[3] = tested on: T3, Candida albicans F2016e085; test: microbe, parasite or virus in culture; design: species or system Candida albicans strains; CLSI M27 broth microdilution, RPMI 1640, OD600 growth, MIC at 50% inhibition; details: F2016E085, 24 h, read-out: 5-FUrd MIC (µg/mL)
T3 construct: F2016e085
Description: as §1

[4] = tested on: T4, Candida albicans SC5314; test: microbe, parasite or virus in culture; design: species or system Candida albicans strains; CLSI M27 broth microdilution, RPMI 1640, OD600 growth, MIC at 50% inhibition; details: SC5314, 24 h, read-out: 5-FUrd MIC (µg/mL)
T4 construct: SC5314
Description: as §1

[5] = tested on: T5, Candida albicans ATCC90028; test: microbe, parasite or virus in culture; design: species or system Candida albicans strains; CLSI M27 broth microdilution, RPMI 1640, OD600 growth, MIC at 50% inhibition; details: ATCC90028, 24 h, read-out: 5-FUrd MIC (µg/mL)
T5 construct: ATCC 90028
Description: as §1

[6] = tested on: T6, Candida albicans F2016c087; test: microbe, parasite or virus in culture; design: species or system Candida albicans strains; CLSI M27 broth microdilution, RPMI 1640, OD600 growth, MIC at 50% inhibition; details: F2016C087, 24 h, read-out: 5-FUrd MIC (µg/mL)
T6 construct: F2016c087
Description: as §1

[7] = tested on: T7, Candida albicans F2016g048; test: microbe, parasite or virus in culture; design: species or system Candida albicans strains; CLSI M27 broth microdilution, RPMI 1640, OD600 growth, MIC at 50% inhibition; details: F2016G048, 24 h, read-out: 5-FUrd MIC (µg/mL)
T7 construct: F2016g048
Description: as §1

[8] = tested on: T8, Candida albicans F2016a067; test: microbe, parasite or virus in culture; design: species or system Candida albicans strains; CLSI M27 broth microdilution, RPMI 1640, OD600 growth, MIC at 50% inhibition; details: F2016A067, 24 h, read-out: 5-FUrd MIC (µg/mL)
T8 construct: F2016a067
Description: as §1

[9] = tested on: T9, Candida albicans F2015f019; test: microbe, parasite or virus in culture; design: species or system Candida albicans strains; CLSI M27 broth microdilution, RPMI 1640, OD600 growth, MIC at 50% inhibition; details: F2015F019, 24 h, read-out: 5-FUrd MIC (µg/mL)
T9 construct: F2015f019
Description: as §1

[10] = tested on: T10, Candida albicans F2014f090; test: microbe, parasite or virus in culture; design: species or system Candida albicans strains; CLSI M27 broth microdilution, RPMI 1640, OD600 growth, MIC at 50% inhibition; details: F2014F090, 24 h, read-out: 5-FUrd MIC (µg/mL)
T10 construct: F2014f090
Description: as §1

[11] = tested on: T11, Candida albicans F2015b076; test: microbe, parasite or virus in culture; design: species or system Candida albicans strains; CLSI M27 broth microdilution, RPMI 1640, OD600 growth, MIC at 50% inhibition; details: F2015B076, 24 h, read-out: 5-FUrd MIC (µg/mL)
T11 construct: F2015b076
Description: as §1

[12] = tested on: T12, Candida albicans F2016f024; test: microbe, parasite or virus in culture; design: species or system Candida albicans strains; CLSI M27 broth microdilution, RPMI 1640, OD600 growth, MIC at 50% inhibition; details: F2016F024, 24 h, read-out: 5-FUrd MIC (µg/mL)
T12 construct: F2016f024
Description: as §1

[13] = target: T13, CaTMPK (Candida albicans, UniProt Q59TV7); test: NADH-coupled assay (pyruvate kinase / lactate dehydrogenase); assay type: biochemical; details: 2 mM ATP, 100 mM Tris-HCl, 100 mM KCl, 10 mM MgCl2
T13 construct: gene CAALFM_C111790WA; pGEX-2T in E. coli BL21; N-terminal GST cut by thrombin; CTG codon changed to TCG to keep native Ser68; synthetic gene GenScript #5001191-1
T13 sequence (Q59TV7 1-224 limits assumed): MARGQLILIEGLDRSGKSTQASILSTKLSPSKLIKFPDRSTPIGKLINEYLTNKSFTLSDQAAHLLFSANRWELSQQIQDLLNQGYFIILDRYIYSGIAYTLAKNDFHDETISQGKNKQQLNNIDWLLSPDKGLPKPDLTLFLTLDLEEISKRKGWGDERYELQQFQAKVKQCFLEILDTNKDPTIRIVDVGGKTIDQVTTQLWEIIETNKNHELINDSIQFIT

[14] = target: T14, hTMPK (Homo sapiens, UniProt P23919); test: as above; assay type: biochemical; details: 2 mM ATP, 100 mM Tris-HCl, 100 mM KCl, 10 mM MgCl2
T14 construct: gene DTYMK; pGEX-2T in E. coli BL21; N-terminal GST cut by thrombin
T14 sequence (P23919 1-212): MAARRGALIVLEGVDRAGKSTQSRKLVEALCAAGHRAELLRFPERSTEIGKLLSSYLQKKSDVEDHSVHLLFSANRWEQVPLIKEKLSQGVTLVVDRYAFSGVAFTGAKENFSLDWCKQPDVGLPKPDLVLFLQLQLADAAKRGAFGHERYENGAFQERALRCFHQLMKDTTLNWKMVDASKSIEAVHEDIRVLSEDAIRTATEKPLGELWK

Compound | MIC [1] | MIC [2] | MIC [3] | MIC [4] | MIC [5] | MIC [6] | MIC [7] | MIC [8] | MIC [9] | MIC [10] | MIC [11] | MIC [12] | Km [13] | Km [14]
O=c1[nH]c(=O)n([C@@H]2O[C@H](CO)[C@@H](O)[C@H]2O)cc1F [5-FUrd, 5-fluorouridine] | 0.021 ± 0.001 µg/mL (≈ 0.0801 µM) | 0.043 ± 0.001 µg/mL (≈ 0.164 µM) | 0.076 ± 0.02 µg/mL (≈ 0.29 µM) | 0.044 ± 0.003 µg/mL (≈ 0.168 µM) | 0.03 ± 0.011 µg/mL (≈ 0.114 µM) | 0.021 ± 0.008 µg/mL (≈ 0.0801 µM) | 0.063 ± 0.012 µg/mL (≈ 0.24 µM) | 0.049 ± 0.001 µg/mL (≈ 0.187 µM) | 0.036 ± 0.008 µg/mL (≈ 0.137 µM) | 0.028 ± 0.002 µg/mL (≈ 0.107 µM) | 0.026 ± 0.001 µg/mL (≈ 0.0992 µM) | 0.031 ± 0.003 µg/mL (≈ 0.118 µM) |  | 
O=c1ccn([C@H]2C[C@H](O)[C@@H](COP(=O)(O)O)O2)c(=O)[nH]1 [dUMP] |  |  |  |  |  |  |  |  |  |  |  |  | Steady-state kinetics of CaTMPK and hTMPK using different dUMP concentrations | Steady-state kinetics of CaTMPK and hTMPK using different dUMP concentrations

From doi:10.1101/466938v1, “The distinct biochemical property enables thymidylate kinase as a drug target and participates in pyrimidine drug sensitivity in Candida albicans” (biorxiv, 2018)
